Laboratory results taken from US20090099237A1, “Methods of treating inflammatory diseases” (Roche Palo Alto LLC, priority 2007, published 2009).
Like-named read-outs stand apart in the source and are kept apart here.

Columns and labels:
FGR = biological target: T1, FGR (Homo sapiens, UniProt P09769); assay: KinomeScan kinase profiling; type: binding; details: 10 μM
T1 construct: purchased Ambit Biosciences

BRAF = biological target: T2, BRAF (Homo sapiens, UniProt P15056); assay: KinomeScan kinase profiling; type: binding; details: 10 μM
T2 construct: purchased Ambit Biosciences

EPHB4 = biological target: T3, EPHB4 (Homo sapiens, UniProt P54760); assay: KinomeScan kinase profiling; type: binding; details: 10 μM
T3 construct: purchased Ambit Biosciences (San Diego, Calif.)

NEK6 = NEK6 (Homo sapiens, UniProt Q9HC98); assay: KinomeScan kinase profiling; type: binding; details: 10 μM
Sequence of NEK6 (Q9HC98 whole entry): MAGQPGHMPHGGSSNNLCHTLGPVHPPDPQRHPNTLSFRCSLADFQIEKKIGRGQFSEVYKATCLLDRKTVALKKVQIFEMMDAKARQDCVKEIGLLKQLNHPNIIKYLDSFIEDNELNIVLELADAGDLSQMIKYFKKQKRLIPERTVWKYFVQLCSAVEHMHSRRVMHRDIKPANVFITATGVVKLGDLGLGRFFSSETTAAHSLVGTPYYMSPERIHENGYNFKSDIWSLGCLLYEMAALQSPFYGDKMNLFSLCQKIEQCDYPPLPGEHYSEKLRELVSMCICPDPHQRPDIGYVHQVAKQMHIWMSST
Description: (§1) The selectivity of a given CK1α, CK1α-CK1δ, CK1α-CK1ε or CK1α-CK1δ-CK1ε inhibitor compound can be determined by testing the compound against a panel of known kinases. An example of such a kinase profiling technology is the “KinomeScan” from Ambit Biosciences in which compounds can be screened for their modulatory activities against more than 200 known kinases.

ITK = biological target: T4, ITK (Homo sapiens, UniProt Q08881); assay: KinomeScan kinase profiling; type: binding; details: 10 μM
T4 construct: purchased Ambit Biosciences
Description: as §1

FLT3 = biological target: T5, FLT3 (Homo sapiens, UniProt P36888); assay: KinomeScan kinase profiling; type: binding; details: 10 μM
T5 construct: purchased Ambit Biosciences
Description: as §1

STK16 = biological target: T6, STK16 (Homo sapiens, UniProt O75716); assay: KinomeScan kinase profiling; type: binding; details: 10 μM
T6 construct: purchased Ambit Biosciences
T6 sequence (O75716 whole entry): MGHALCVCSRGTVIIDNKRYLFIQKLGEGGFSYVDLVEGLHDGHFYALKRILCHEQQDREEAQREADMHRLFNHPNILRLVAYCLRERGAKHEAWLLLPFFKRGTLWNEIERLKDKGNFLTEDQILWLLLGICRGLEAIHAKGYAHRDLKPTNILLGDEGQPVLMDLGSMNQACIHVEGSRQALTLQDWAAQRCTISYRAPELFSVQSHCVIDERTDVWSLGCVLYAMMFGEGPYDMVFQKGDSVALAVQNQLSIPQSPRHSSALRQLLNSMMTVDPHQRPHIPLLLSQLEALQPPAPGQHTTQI
Description: as §1

NEK9 = NEK9 (Homo sapiens, UniProt Q8TD19); assay: KinomeScan kinase profiling; type: binding; details: 10 μM
Description: as §1

GAK = biological target: T7, GAK (Homo sapiens, UniProt O14976); assay: KinomeScan kinase profiling; type: binding; details: 10 μM
T7 construct: purchased Ambit Biosciences
Description: as §1

NEK2 = NEK2 (Homo sapiens, UniProt P51955); assay: KinomeScan kinase profiling; type: binding; details: 10 μM
Description: as §1

ERBB2 = biological target: T8, ERBB2 (Homo sapiens, UniProt P04626); assay: KinomeScan kinase profiling; type: binding; details: 10 μM
T8 construct: purchased Ambit Biosciences
Description: as §1

STK11 = biological target: T9, STK11 (Homo sapiens, UniProt Q15831); assay: KinomeScan kinase profiling; type: binding; details: 10 μM
T9 construct: purchased Ambit Biosciences
Description: as §1

CAMK1G = biological target: T10, CAMK1G (Homo sapiens, UniProt Q96NX5); assay: KinomeScan kinase profiling; type: binding; details: 10 μM
T10 construct: purchased Ambit Biosciences
Description: as §1

CAMKK1 = biological target: T11, CAMKK1 (Homo sapiens, UniProt Q8N5S9); assay: KinomeScan kinase profiling; type: binding; details: 10 μM
T11 construct: purchased Ambit Biosciences (San Diego, Calif.)
T11 sequence (Q8N5S9 whole entry): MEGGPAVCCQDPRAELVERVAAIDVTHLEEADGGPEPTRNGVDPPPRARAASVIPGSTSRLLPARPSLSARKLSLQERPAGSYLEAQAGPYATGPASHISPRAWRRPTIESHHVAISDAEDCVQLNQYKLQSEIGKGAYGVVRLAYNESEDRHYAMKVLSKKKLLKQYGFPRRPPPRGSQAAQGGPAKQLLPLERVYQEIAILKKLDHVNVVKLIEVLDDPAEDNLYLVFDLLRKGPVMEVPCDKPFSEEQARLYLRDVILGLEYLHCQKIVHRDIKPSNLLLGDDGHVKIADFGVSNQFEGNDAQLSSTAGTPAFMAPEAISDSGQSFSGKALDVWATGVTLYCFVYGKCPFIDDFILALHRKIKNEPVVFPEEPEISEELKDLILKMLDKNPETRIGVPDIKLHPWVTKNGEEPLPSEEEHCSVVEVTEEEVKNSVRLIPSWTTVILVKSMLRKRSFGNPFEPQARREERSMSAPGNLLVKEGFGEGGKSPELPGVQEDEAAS
Description: as §1

CLK4 = biological target: T12, CLK4 (Homo sapiens, UniProt Q9HAZ1); assay: KinomeScan kinase profiling; type: binding; details: 10 μM
T12 construct: purchased Ambit Biosciences (San Diego, Calif.)
Description: as §1

SYK = biological target: T13, SYK (Homo sapiens, UniProt P43405); assay: KinomeScan kinase profiling; type: binding; details: 10 μM
T13 construct: purchased Ambit Biosciences
Description: as §1

EGFR = biological target: T14, EGFR (Homo sapiens, UniProt P00533); assay: KinomeScan kinase profiling; type: binding; details: 10 μM
T14 construct: purchased Ambit Biosciences (San Diego, Calif.)
Description: as §1

CAMK2D = biological target: T15, CAMK2D (Homo sapiens, UniProt Q13557); assay: KinomeScan kinase profiling; type: binding; details: 10 μM
T15 construct: purchased Ambit Biosciences
Description: as §1

EPHA7 = biological target: T16, EPHA7 (Homo sapiens, UniProt Q15375); assay: KinomeScan kinase profiling; type: binding; details: 10 μM
T16 construct: purchased Ambit Biosciences (San Diego, Calif.)
Description: as §1

BTK = biological target: T17, BTK (Homo sapiens, UniProt Q06187); assay: KinomeScan kinase profiling; type: binding; details: 10 μM
T17 construct: purchased Ambit Biosciences
Description: as §1

FES = biological target: T18, FES (Homo sapiens, UniProt P07332); assay: KinomeScan kinase profiling; type: binding; details: 10 μM
T18 construct: purchased Ambit Biosciences
T18 sequence (P07332 whole entry): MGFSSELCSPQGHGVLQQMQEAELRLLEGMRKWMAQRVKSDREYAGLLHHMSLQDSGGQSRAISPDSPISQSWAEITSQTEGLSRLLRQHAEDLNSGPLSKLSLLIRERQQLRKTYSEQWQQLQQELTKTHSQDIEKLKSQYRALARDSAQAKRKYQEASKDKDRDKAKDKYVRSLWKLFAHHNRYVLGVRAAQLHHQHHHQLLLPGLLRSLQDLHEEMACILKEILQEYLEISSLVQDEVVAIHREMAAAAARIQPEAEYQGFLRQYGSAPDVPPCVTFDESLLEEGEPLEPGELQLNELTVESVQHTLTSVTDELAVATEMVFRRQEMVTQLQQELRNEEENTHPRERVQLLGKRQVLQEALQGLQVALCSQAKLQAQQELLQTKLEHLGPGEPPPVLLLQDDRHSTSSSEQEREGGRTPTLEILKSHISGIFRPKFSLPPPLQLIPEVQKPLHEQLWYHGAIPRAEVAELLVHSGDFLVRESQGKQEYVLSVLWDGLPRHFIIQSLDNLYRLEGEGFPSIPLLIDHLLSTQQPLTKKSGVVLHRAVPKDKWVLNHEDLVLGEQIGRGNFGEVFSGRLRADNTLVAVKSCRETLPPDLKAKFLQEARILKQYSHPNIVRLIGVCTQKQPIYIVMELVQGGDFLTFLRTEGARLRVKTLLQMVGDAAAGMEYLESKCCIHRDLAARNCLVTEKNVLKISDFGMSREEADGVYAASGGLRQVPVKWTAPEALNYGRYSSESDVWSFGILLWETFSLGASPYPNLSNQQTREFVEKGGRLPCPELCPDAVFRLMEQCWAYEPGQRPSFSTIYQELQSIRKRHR
Description: as §1

CSK = biological target: T19, CSK (Homo sapiens, UniProt P41240); assay: KinomeScan kinase profiling; type: binding; details: 10 μM
T19 construct: purchased Ambit Biosciences (San Diego, Calif.)
Description: as §1

CAMK2G = biological target: T20, CAMK2G (Homo sapiens, UniProt Q13555); assay: KinomeScan kinase profiling; type: binding; details: 10 μM
T20 construct: purchased Ambit Biosciences
Description: as §1

EPHA8 = biological target: T21, EPHA8 (Homo sapiens, UniProt P29322); assay: KinomeScan kinase profiling; type: binding; details: 10 μM
T21 construct: purchased Ambit Biosciences (San Diego, Calif.)
Description: as §1

PDGFRA = PDGFRA (Homo sapiens, UniProt P16234); assay: KinomeScan kinase profiling; type: binding; details: 10 μM
Description: as §1

CSNK1G1 = biological target: T22, CSNK1G1 (Homo sapiens, UniProt Q9HCP0); assay: KinomeScan kinase profiling; type: binding; details: 10 μM
T22 construct: purchased Ambit Biosciences (San Diego, Calif.)
Description: as §1

STK10 = biological target: T23, STK10 (Homo sapiens, UniProt O94804); assay: KinomeScan kinase profiling; type: binding; details: 10 μM
T23 construct: purchased Ambit Biosciences
T23 sequence (O94804 whole entry): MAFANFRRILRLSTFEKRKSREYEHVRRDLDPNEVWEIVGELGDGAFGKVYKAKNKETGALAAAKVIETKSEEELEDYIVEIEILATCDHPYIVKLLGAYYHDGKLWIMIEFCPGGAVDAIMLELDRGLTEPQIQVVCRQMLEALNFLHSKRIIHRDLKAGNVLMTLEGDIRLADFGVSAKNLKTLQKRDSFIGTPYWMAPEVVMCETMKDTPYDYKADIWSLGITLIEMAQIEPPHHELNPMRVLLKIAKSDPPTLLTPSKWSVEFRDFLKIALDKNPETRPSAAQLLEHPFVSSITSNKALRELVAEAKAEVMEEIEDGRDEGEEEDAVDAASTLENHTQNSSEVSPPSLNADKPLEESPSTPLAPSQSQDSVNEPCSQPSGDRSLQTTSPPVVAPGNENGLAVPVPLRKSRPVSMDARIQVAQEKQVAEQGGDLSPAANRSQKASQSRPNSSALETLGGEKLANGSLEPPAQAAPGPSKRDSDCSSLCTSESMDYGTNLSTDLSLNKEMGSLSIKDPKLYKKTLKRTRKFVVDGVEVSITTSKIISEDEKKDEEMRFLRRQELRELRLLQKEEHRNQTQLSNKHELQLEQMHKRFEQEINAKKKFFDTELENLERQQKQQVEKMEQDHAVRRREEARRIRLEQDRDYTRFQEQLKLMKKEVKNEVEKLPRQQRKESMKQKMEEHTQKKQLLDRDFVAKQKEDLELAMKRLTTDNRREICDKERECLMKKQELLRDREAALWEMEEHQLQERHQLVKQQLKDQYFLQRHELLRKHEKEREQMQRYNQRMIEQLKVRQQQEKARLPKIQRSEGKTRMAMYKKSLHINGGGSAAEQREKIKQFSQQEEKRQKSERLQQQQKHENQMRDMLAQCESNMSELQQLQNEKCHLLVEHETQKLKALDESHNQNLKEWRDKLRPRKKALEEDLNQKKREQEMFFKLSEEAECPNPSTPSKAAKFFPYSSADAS
Description: as §1

CLK1 = biological target: T24, CLK1 (Homo sapiens, UniProt P49759); assay: KinomeScan kinase profiling; type: binding; details: 10 μM
T24 construct: purchased Ambit Biosciences (San Diego, Calif.)
Description: as §1

PAK6 = PAK6 (Homo sapiens, UniProt Q9NQU5); assay: KinomeScan kinase profiling; type: binding; details: 10 μM
Description: as §1

TRKA = biological target: T25, TRKA (Homo sapiens, UniProt P04629); assay: KinomeScan kinase profiling; type: binding; details: 10 μM
T25 construct: purchased Ambit Biosciences
Description: as §1

BIKE = biological target: T26, BIKE (Homo sapiens, UniProt Q9NSY1); assay: KinomeScan kinase profiling; type: binding; details: 10 μM
T26 construct: purchased Ambit Biosciences
Description: as §1

FGFR3 = biological target: T27, FGFR3 (Homo sapiens, UniProt P22607); assay: KinomeScan kinase profiling; type: binding; details: 10 μM
T27 construct: purchased Ambit Biosciences

RPS6KA3 = biological target: T28, RPS6KA3 (Homo sapiens, UniProt P51812); assay: KinomeScan kinase profiling; type: binding; details: 10 μM
T28 construct: purchased Ambit Biosciences

DAPK2 = biological target: T29, DAPK2 (Homo sapiens, UniProt Q9UIK4); assay: KinomeScan kinase profiling; type: binding; details: 10 μM
T29 construct: purchased Ambit Biosciences (San Diego, Calif.)
T29 sequence (Q9UIK4 whole entry): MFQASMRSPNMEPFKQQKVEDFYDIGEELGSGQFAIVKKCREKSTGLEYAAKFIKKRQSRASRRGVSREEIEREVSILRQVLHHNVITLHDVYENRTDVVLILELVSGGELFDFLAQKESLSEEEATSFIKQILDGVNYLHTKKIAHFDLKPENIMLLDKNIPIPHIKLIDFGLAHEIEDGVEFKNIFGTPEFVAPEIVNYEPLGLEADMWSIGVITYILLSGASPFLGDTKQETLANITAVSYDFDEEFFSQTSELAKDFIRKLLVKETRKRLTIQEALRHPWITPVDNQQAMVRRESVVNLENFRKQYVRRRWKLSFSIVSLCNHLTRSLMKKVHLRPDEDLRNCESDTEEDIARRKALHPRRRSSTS

JNK2 = biological target: T30, JNK2 (Homo sapiens, UniProt P45984); assay: KinomeScan kinase profiling; type: binding; details: 10 μM
T30 construct: purchased Ambit Biosciences

CK1ε = biological target: T31, CK1ε (Homo sapiens, UniProt P49674); assay: In vitro kinase assay (33P, peptide substrate); type: biochemical
T31 construct: purchased Invitrogen

RPS6KA2 = biological target: T32, RPS6KA2 (Homo sapiens, UniProt Q15349); assay: KinomeScan kinase profiling; type: binding; details: 10 μM
T32 construct: purchased Ambit Biosciences
T32 sequence (Q15349 whole entry): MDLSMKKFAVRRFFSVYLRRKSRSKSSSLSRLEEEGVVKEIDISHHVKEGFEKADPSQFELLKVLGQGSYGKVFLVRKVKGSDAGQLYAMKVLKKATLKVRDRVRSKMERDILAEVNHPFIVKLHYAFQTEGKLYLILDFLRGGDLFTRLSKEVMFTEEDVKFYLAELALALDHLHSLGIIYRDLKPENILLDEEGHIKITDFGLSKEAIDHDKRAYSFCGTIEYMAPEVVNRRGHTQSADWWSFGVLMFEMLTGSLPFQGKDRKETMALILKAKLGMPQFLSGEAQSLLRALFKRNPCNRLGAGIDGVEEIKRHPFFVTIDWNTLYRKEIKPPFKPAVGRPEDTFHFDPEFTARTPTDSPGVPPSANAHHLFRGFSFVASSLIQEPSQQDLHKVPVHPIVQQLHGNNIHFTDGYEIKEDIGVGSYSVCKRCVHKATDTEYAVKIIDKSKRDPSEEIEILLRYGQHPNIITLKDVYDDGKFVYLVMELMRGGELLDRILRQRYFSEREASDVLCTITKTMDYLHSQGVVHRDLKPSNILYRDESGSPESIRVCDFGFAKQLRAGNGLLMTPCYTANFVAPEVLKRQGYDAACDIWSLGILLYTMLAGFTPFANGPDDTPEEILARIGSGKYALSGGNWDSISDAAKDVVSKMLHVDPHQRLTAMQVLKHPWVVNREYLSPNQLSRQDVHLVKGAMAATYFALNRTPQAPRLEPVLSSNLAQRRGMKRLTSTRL

p38-alpha = p38-alpha (Homo sapiens, UniProt Q16539); assay: KinomeScan kinase profiling; type: binding; details: 10 μM
KIT = biological target: T33, KIT (Homo sapiens, UniProt P10721); assay: KinomeScan kinase profiling; type: binding; details: 10 μM
T33 construct: purchased Ambit Biosciences
T33 sequence (P10721 26-976): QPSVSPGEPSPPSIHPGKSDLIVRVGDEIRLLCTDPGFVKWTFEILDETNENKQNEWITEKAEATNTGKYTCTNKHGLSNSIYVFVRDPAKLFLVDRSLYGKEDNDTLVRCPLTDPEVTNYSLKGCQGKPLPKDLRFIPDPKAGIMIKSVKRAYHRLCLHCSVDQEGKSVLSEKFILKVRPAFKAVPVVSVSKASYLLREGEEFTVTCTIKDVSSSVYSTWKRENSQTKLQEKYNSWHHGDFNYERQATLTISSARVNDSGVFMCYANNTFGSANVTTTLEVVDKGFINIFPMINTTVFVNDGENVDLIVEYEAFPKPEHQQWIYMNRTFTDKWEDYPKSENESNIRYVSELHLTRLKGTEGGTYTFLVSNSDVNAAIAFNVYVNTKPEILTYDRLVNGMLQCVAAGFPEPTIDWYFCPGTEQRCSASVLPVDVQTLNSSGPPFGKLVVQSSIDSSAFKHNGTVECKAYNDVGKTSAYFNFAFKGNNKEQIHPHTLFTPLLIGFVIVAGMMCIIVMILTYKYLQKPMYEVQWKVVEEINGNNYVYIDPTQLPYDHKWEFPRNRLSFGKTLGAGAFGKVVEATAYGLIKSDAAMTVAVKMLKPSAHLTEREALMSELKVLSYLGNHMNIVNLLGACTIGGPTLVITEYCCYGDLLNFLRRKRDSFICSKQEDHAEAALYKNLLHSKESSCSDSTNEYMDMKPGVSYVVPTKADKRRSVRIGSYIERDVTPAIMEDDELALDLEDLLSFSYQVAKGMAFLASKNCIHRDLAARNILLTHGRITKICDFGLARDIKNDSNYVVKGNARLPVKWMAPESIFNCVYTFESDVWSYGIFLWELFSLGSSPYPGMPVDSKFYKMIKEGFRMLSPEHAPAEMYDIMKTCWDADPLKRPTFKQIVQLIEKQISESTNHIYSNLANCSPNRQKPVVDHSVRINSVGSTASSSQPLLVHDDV

Structure (SMILES) | % Binding (FGR) [%] | % Binding (BRAF) [%] | % Binding (EPHB4) [%] | % Binding (NEK6) [%] | % Binding (ITK) [%] | % Binding (FLT3) [%] | % Binding (STK16) [%] | % Binding (NEK9) [%] | % Binding (GAK) [%] | % Binding (NEK2) [%] | % Binding (ERBB2) [%] | % Binding (STK11) [%] | % Binding (CAMK1G) [%] | % Binding (CAMKK1) [%] | % Binding (CLK4) [%] | % Binding (SYK) [%] | % Binding (EGFR) [%] | % Binding (CAMK2D) [%] | % Binding (EPHA7) [%] | % Binding (BTK) [%] | other results
NC(=O)c1cc(-c2ccncc2)c[nH]1 [Compound A, 4-Pyridin-4-yl-1H-pyrrole-2-carboxylic acid amide] | <50 | <50 | <50 | <50 | <50 | <50 | <50 | <50 | <50 | <50 | <50 | <50 | <50 | <50 | 97 | <50 | <50 | <50 | <50 | <50 | % Binding (FES): <50%; % Binding (CSK): <50%; % Binding (CAMK2G): <50%; % Binding (EPHA8): <50%; % Binding (PDGFRA): <50%; % Binding (CSNK1G1): <50%; % Binding (STK10): <50%; % Binding (CLK1): 97%; % Binding (PAK6): <50%; % Binding (TRKA): <50%; % Binding (BIKE): <50%; % Binding (FGFR3): <50%; % Binding (RPS6KA3): <50%; % Binding (DAPK2): <50%; % Binding (JNK2): <50%; IC50 (CK1ε; CK1ε, 50 μM ATP, read-out: IC50): 17.3 µM; % Binding (RPS6KA2): <50%; % Binding (p38-alpha): <50%; % Binding (KIT): <50%
COc1cc(OC)c(C=C2C(O)=Nc3ccccc32)c(OC)c1 [IC261, 3-[(2,4,6-trimethoxyphenyl)methylidenyl]-indolin-2-one] | <50 | <50 | <50 | <50 | <50 | <50 | <50 | <50 | <50 | <50 | <50 | <50 | <50 | <50 | <50 | <50 | <50 | <50 | <50 | <50 | % Binding (FES): <50%; % Binding (CSK): <50%; % Binding (CAMK2G): <50%; % Binding (EPHA8): <50%; % Binding (PDGFRA): <50%; % Binding (CSNK1G1): <50%; % Binding (STK10): <50%; % Binding (CLK1): <50%; % Binding (PAK6): <50%; % Binding (TRKA): <50%; % Binding (BIKE): <50%; % Binding (FGFR3): <50%; % Binding (RPS6KA3): <50%; % Binding (DAPK2): <50%; % Binding (JNK2): <50%; IC50 (CK1ε): 5.97 µM; % Binding (RPS6KA2): <50%; % Binding (p38-alpha): <50%; % Binding (KIT): <50%
